# In paper PMC7801616, “Surface hydrophobics mediate functional dimerization of CYP121A1 of Mycobacterium tuberculosis” (Scientific Reports, 2021):
# “Also recorded” adds a separate entry of the source.
# Key:
# [1] = system: I166A_I180A CYP121A1 heme thiolate-CO complex
# WT CYP121A1 dimer = system: WT CYP121A1 dimer; set-up: species or system Mycobacterium tuberculosis
# I166A_I180A CYP121A1 = format: binding, Mycobacterium tuberculosis
# [2] = target: I166A_I180A CYP121A1 (monomeric) (Mycobacterium tuberculosis, UniProt P9WPP7, I166A/I180A); format: binding
# WT CYP121A1 (dimeric) = WT CYP121A1 (dimeric) (Mycobacterium tuberculosis, UniProt P9WPP7); format: binding; conditions: pH 7.4
smiles,measurement,setting,value
"O=C1N[C@@H](Cc2ccc(O)cc2)C(=O)N[C@H]1Cc1ccc(O)cc1 [cYY, cyclo-L-Tyr-L-Tyr]",increase of estimated half-life of the heme thiolate-CO complex by presence of substrate,[1],50 fold
Clc1ccc(COC(Cn2ccnc2)c2ccc(Cl)cc2Cl)cc1 (stereo not drawn) [econazole],effect of ligand saturation on dimer migration on gel filtration column,WT CYP121A1 dimer,did not cause CYP121A1 to migrate on the column as a monomer
c1c[nH]cn1 [imidazole],effect of ligand on thermal stability,I166A_I180A CYP121A1,destabilizing
same,decrease of Kd from dimeric to monomeric CYP121A1,[2],20 fold
same,Kd,[2]; pH 7.4,2.73 mM
same,Kd,WT CYP121A1 (dimeric),46 mM
CC(=O)N1CCN(c2ccc(OCC3COC(Cn4ccnc4)(c4ccc(Cl)cc4Cl)O3)cc2)CC1 (stereo not drawn) [ketoconazole],stabilization of the CO-bound 450 nm species,[1],minimal stabilization of the 450 nm species
same,effect of ligand on thermal stability,I166A_I180A CYP121A1,modest increase in the stability; also recorded: destabilizing
Clc1ccc(COC(Cn2ccnc2)c2ccc(Cl)cc2Cl)c(Cl)c1 (stereo not drawn) [miconazole],effect of ligand saturation on dimer migration on gel filtration column,WT CYP121A1 dimer,did not cause CYP121A1 to migrate on the column as a monomer
